These are literature values, as cited in patent publication US10596151B2, “Methods and pharmaceutical compositions for reducing arterial stiffness with a combination of a therapeutic agent blocking the angiotensin receptor and a therapeutic agent inhibiting the NEP enzyme” (Novartis AG, priority 2015, dated 2020).

The data set relates to patients with hypertension. The note with it: after 12 weeks of therapy; cited from earlier work.

For the compound `O=C(N[C@H]1CCS[C@H]2CCC[C@@H](C(=O)O)N2C1=O)[C@@H](S)Cc1ccccc1` [omapatrilat], the “aortic characteristic impedance compared with enalapril” value is on record as “greater improvements in aortic characteristic impedance compared with enalapril”.
